Measured values published in paper PMC7725785, “TRIB3 promotes MYC-associated lymphoma development through suppression of UBE3B-mediated MYC degradation” (Nature Communications, 2020).

Key:
DLBCL^T69 PDX = assay: PDX model tumor growth and weight, DLBCL T69; assay type: in vivo, human; conditions: result in words
Protocol: (§1) Four 5-week-old male NSG mice were implanted subcutaneously with 200 μl of a 1:1 mixture of Matrigel® Basement Membrane Matrix High Concentration (Corning, 354230) and minced fresh tumor fragments resected from lymphoma patients. Approximately 3–4 weeks following implantation, the first-generation mice (G1) were killed, and tumor masses were isolated. The tumor cells were tested for human CD19 (BCL) or CD3 expression (T cell lymphoma), and the remaining tumor mass was cut into 3-mm^3 sections and passaged into 4–5 NSG mice as the second generation (G2). After stable passage of the third generation (G3), the tumor mass of the fourth generation (G4) was equally cut into 3-mm^3 pieces and then passaged subcutaneously into 30–50 NSG mice (100 μl of a 1:2 mixture of Matrigel and tumor tissue) for in vivo treatment (6–8 mice per group, dependent on the experimental drug treatment). During and after treatment with the vehicle control or the indicated agent, tumor burden was evaluated by measuring the tumor volume to determine the therapeutic efficacy in the PDX models. […]
(§2) To evaluate the survival rate, these mice were monitored for 8 months (Myc^Eμ mice). […] During the indicated treatments, tumor burden was evaluated by measuring the tumor volume to determine the therapeutic efficacy in the PDX models.

[1] = tested on: primary human DLBCL cells (T69); assay: Serial colony formation (P1, P2) in methylcellulose, primary human DLBCL cells (T69); assay type: cell-based; conditions: also Raji and Jurkat (Fig. 6o, Supplementary Fig. 7r, s), result in words
Excerpt: Mouse and human lymphoma cells formed colonies upon serum culture (P1). Single colonies of lymphoma cells were dispersed in methylcellulose-based medium MethoCul^TM M3630 (StemCell, 03630) or MethoCult™SF H4536 (StemCell, 04536). A representative plate was then washed and cells were resuspended and replated. After an additional 14 days, colonies were counted (P2).

TLBL^T123 PDX = assay: PDX model tumor growth and weight, T-LBL T123; assay type: in vivo, human; conditions: result in words
Protocol: as §1, §2

MYC and MAX = assay: Duolink PLA of MYC and MAX colocalization in Raji cells; assay type: cell-based, human; conditions: PCM4-treated Raji cells, result in words
Protocol: A total of 1 × 10^6 cells were seeded overnight in a six-well plate. The next day, cells were collected, fixed in 4% paraformaldehyde solution, permeabilized with 0.5% Triton-X100, blocked with Duolink® Blocking Solution, and probed with antibodies directed against MYC (R&D, NB600-302, 1:100), TRIB3 (Novus, H00057761-M03, 1:100), UBE3B (Invitrogen, PA5-59390, 1:100), and MAX (Cell Signaling Technology, #4739, 1:100). The cells were then treated with the Duolink In Situ Red Starter Mouse/Rabbit kit (Sigma Aldrich, DUO92101-1KT) according to the manufacturer’s instructions. Images were captured with an OLYMPUS confocal microscope.

Sequence: HLYVSPWGGKRREQLKHKLEQLR [PCM4, fused peptide generated by linking CM4 to a cell-penetrating peptide]
- growth and weights of tumors, combination of PCM4 and DOX (DLBCL^T69 PDX; PDX T69 (high TRIB3 and MYC expression), PCM4 5 mg/kg and DOX 2 mg/kg): further decreased the growth and weights of tumors
- tumor growth of PDX (DLBCL^T69 PDX; PDX T69, NSG mice, PCM4 5 mg/kg i.v. three times a week): inhibited the tumor growth
- intrinsic clonogenicity of human lymphoma cells [1]: reduced the intrinsic clonogenicity
- growth and weights of tumors, combination of PCM4 and DOX (TLBL^T123 PDX; PDX T123 (high TRIB3 and MYC expression), PCM4 5 mg/kg and DOX 2 mg/kg): further decreased the growth and weights of tumors
- tumor growth of PDX (TLBL^T123 PDX; PDX T123, NSG mice, PCM4 5 mg/kg i.v. three times a week): inhibited the tumor growth
- foci of MAX-MYC colocalization (MYC and MAX): reduced foci of MAX-MYC colocalization
